# Measured values from patent publication US20220168430A1, “THERAPEUTIC METHODS FOR TREATING HEPATITIS B” (priority 2019, published 2022).
# Columns and labels:
# [1] = test system: HBV rcDNA; experiment: microbe, parasite or virus in culture; format: cell-based, HBV genotype D, serotype ayw; HepG 2.2.15; conditions: for SYNERGY PLOT (99%) Bonferroni Adj. 55%: TDF 0 μM, Cmpd 1 by row r37-r42: 0.405, 0.135, 0.045, 0.015, 0.005, 0 μM
# Method: In vitro triple agent combination studies were conducted using the method of Prichard and Shipman 1990 (Prichard M N, Shipman C, Jr. 1990. Antiviral Res 14:181-205). The HepG 2.2.15 cell line was derived from HepG2 cells with constitutive expression of HBV (genotype D, serotype ayw) (Sells M A, Chen M L, Acs G. 1987. Proc Natl Acad Sci USA 84:1005-9). […] The plates were incubated for 7 days in a humidified incubator at 37° C. and 5% CO2. The level of rcDNA present in the culture supernatants was measured using a Quantigene 2.0 bDNA assay kit (Affymetrix, Santa Clara, Calif.) with HBV specific custom probe set (genotype D ayw) and according to the manufacturer's instructions and read using a luminescence plate reader and the relative luminescence units (RLU) data generated from each well was calculated as % inhibition of the untreated control wells and analyzed using the MacSynergy II program to determine whether the combinations were synergistic, additive or antagonistic using the interpretive guidelines established by Prichard and Shipman (Prichard M N, Shipman C, Jr. 1990. […] Concurrently, in each experiment, the effect of inhibitor combinations on cell viability was assessed in triplicates that were used to determine the ATP content as a measure of cell viability using the Cell-Titer Glo reagent (Promega, Madison, Wis.) as per the manufacturer's instructions.
# [2] = test system: HBV DNA; experiment: Serum HBV DNA in pHBV1.3 hydrodynamic injection mouse model of HBV (Example 12); format: in vivo, NOD.CB17-Prkdc scid/J mice; HBV genotype D, serotype ayw; conditions: once daily oral from Day 0: RNA destabilizer 10 mg/kg, encapsidation inhibitor 100 mg/kg, nucleos(t)ide analog 0.4 mg/kg, group mean ± SEM, n=7 or 8, from negative control
# Method: On Day −7, 10 micrograms of the plasmid pHBV1.3 (constructed based on details provided in Guidotti, L., et al., Journal of Virology, 1995, 69(10): 6158-6169) was administered to NOD.CB 17-Prkdc^scid/J mice via hydrodynamic injection (HDI; rapid 1.6 mL injection into the tail vein). […] As readouts of the anti-HBV effect of the treatments, serum HBV DNA and serum HBsAg were assessed. Serum HBV DNA concentration in mice was measured using a quantitative PCR assay following total DNA extraction using previously published primers and probe sequences (Tanaka, Y., et al., Journal of Medical Virology, 2004, 72: 223-229). Serum HBsAg concentration in mice was measured using a commercially available ELISA kit (HBsAg EIA 3.0 480 Test Kit, Bio-Rad).
# Animals were treated with RNA destabilizer as follows: Starting on Day 0, a 10 mg/kg dosage of RNA destabilizer was administered orally to animals on a once-daily frequency for a total of seven doses across the duration of the study. Animals were treated with encapsidation inhibitor as follows: Starting on Day 0, a 100 mg/kg dosage of encapsidation inhibitor was administered orally to animals on a once-daily frequency for a total of seven doses across the duration of the study. Animals were treated with nucleos(t)ide analog as follows: Starting on Day 0, a 0.4 mg/kg dosage of nucleos(t)ide analog was administered orally to animals on a once-daily frequency for a total of seven doses across the duration of the study. The RNA destabilizer, the encapsidation inhibitor, and nucleos(t)ide analog were each dissolved in the same co-solvent formulation for administration and negative control animals were administered the co-solvent formulation alone. To calculate treatment-specific effects, the treated groups are compared against negative control (vehicle treated) animals.
# The effect of these treatments was determined by collecting blood on Days −1 (prior to study's treatment phase), 4, and 7 and analyzing it for serum HBV DNA and HBsAg content.
# [3] = test system: HBsAg; experiment: Liver HBsAg by ELISA in AAV-HBV mouse model (Example 18); format: in vivo, C57BL/6 mice; HBV serotype Ayw, genotype D; conditions: Study Day 42; siRNA 3 mg/kg s.c. Days 0 and 28, encapsidation inhibitor 100 mg/kg and/or TDF 1 mg/kg oral daily Days 0-41; group mean ± SEM, n=6
# Method: Prior to treatment start, 1×10^11 viral genomes of an adeno-associated virus (AAV) vector carrying a 1.3-fold overlength copy of an HBV genome (serotype Ayw, genotype D) was administered to C57BL/6 mice via intravenous injection. Introduction of this viral vector results in the expression of HBV DNA and HBV surface antigen (HBsAg) amongst other HBV products. Serum HBV DNA levels in mice was measured using a quantitative polymerase chain reaction (QPCR) assay, HBsAg in serum and liver of mice was measured using an enzyme-linked immunosorbent assay (ELISA), and anti-HBsAg antibodies were measured using ELISA.
# Treatment effects on serum HBV DNA were determined by collecting a small amount of blood on Days 0 (pre-treatment) and 14, as well as from terminal blood collections at Day 42. Treatment effects on HBsAg in serum and liver were determined from terminal sample collections at Day 42.
# Any individual animal samples measured to fall below assay lower limit of quantitation (LLOQ) were reported as the LLOQ value.
# [4] = Hepatitis B virus, HepG2.2.15, read-out: ADDITIVE INHIBITION
structure (smiles),measurement,setting,value
COCCCOc1cc2c(nc1OC)-c1cc(=O)c(C(=O)O)cn1[C@H](C(C)C)C2 [Compound 2],AVERAGE % INHIBITION,"[1]; Cmpd 1 0 μM, Cmpd 2 0.0001 μM, TAF 0 μM",31.76%
same,AVERAGE % INHIBITION,"[1]; Cmpd 1 0 μM, Cmpd 2 0.0002 μM, TAF 0 μM",43.68%
same,AVERAGE % INHIBITION,"[1]; Cmpd 1 0 μM, Cmpd 2 0.0004 μM, TAF 0 μM",58.53%
same,AVERAGE % INHIBITION,"[1]; Cmpd 1 0 μM, Cmpd 2 0.001 μM, TAF 0 μM",71.85%
same,AVERAGE % INHIBITION,"[1]; Cmpd 1 0 μM, Cmpd 2 0.002 μM, TAF 0 μM",78.06%
same,AVERAGE % INHIBITION,"[1]; Cmpd 1 0 μM, Cmpd 2 0.003 μM, TAF 0 μM",83.72%
same,AVERAGE % INHIBITION,"[1]; Cmpd 1 0 μM, Cmpd 2 0.007 μM, TAF 0 μM",85.49%
same,AVERAGE % INHIBITION,"[1]; Cmpd 1 0 μM, Cmpd 2 0.027 μM, TAF 0 μM",87.17%
same,AVERAGE % INHIBITION,"[1]; Cmpd 1 0 μM, Cmpd 2 […], TAF 0 μM",89.05%
same,SYNERGY PLOT (99%) Bonferroni Adj. 55%,[1]; Cmpd 2 0.00002 μM,0
same,SYNERGY PLOT (99%) Bonferroni Adj. 55%,[1]; Cmpd 2 0.00004 μM,0
same,SYNERGY PLOT (99%) Bonferroni Adj. 55%,[1]; Cmpd 2 0.00008 μM,0
same,SYNERGY PLOT (99%) Bonferroni Adj. 55%,[1]; Cmpd 2 0.00016 μM,0
same,SYNERGY PLOT (99%) Bonferroni Adj. 55%,[1]; Cmpd 2 0.0003 μM,0
same,SYNERGY PLOT (99%) Bonferroni Adj. 55%,[1]; Cmpd 2 0.0006 μM,0
same,SYNERGY PLOT (99%) Bonferroni Adj. 55%,[1]; Cmpd 2 0.001 μM,0
same,SYNERGY PLOT (99%) Bonferroni Adj. 55%,[1]; Cmpd 2 0.003 μM,0
same,SYNERGY PLOT (99%) Bonferroni Adj. 55%,[1]; Cmpd 2 0.005 μM,0
same,AVERAGE % INHIBITION,"[1]; ETV @ 0 μM, Cmpd 2 0.0001 μM alone",39.44%
same,AVERAGE % INHIBITION,"[1]; ETV @ 0 μM, Cmpd 2 0.0002 μM alone",47.6%
same,AVERAGE % INHIBITION,"[1]; ETV @ 0 μM, Cmpd 2 0.0004 μM alone",67.99%
same,AVERAGE % INHIBITION,"[1]; ETV @ 0 μM, Cmpd 2 0.001 μM alone",74.24%
same,AVERAGE % INHIBITION,"[1]; ETV @ 0 μM, Cmpd 2 0.002 μM alone",77.97%
same,AVERAGE % INHIBITION,"[1]; ETV @ 0 μM, Cmpd 2 0.003 μM alone",83.78%
same,AVERAGE % INHIBITION,"[1]; ETV @ 0 μM, Cmpd 2 0.007 μM alone",86.78%
same,AVERAGE % INHIBITION,"[1]; ETV @ 0 μM, Cmpd 2 0.027 μM alone",88.04%
same,AVERAGE % INHIBITION,"[1]; ETV @ 0 μM, Cmpd 2 […] alone",88.65%
same,inhibition at 20 pM,[1]; [4],7.15%
same,inhibition at 40 pM,[1]; [4],9.56%
same,inhibition at 0.00016 µM,[1]; [4],36.2%
same,inhibition at 0.0003 µM,[1]; [4],40.9%
same,inhibition at 0.0006 µM,[1]; [4],64.5%
same,inhibition at 0.001 µM,[1]; [4],69.8%
same,inhibition at 0.003 µM,[1]; [4],74.5%
same,inhibition at 0.005 µM,[1]; [4],77.5%
"CC(C)OC(=O)OCOP(=O)(CO[C@H](C)Cn1cnc2c(N)ncnc21)OCOC(=O)OC(C)C.O=C(O)/C=C/C(=O)O [TDF, tenofovir disoproxil fumarate, reference compound]",Serum HBV DNA log reduction,[2]; Day 4,1.2 ± 0.2 log
same,Serum HBV DNA log reduction,[2]; Day 7,1.7 ± 0.1 log
same,Liver HBsAg,[3],1.77 ± 0.03 log10 IU/mg liver protein
